# Results taken from patent publication US6737383B1, “Herbicidal oxadiazolidines” (priority 1999, dated 2004).
# Legend:
# surinam grass = assay: Test B pre/postemergence surinam grass; type: in vivo, Brachiaria decumbens
# Method in brief: (§1)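 Test chemicals in a non-phytotoxic solvent mixture with surfactant were sprayed preemergence onto planted seeds and postemergence onto plants 2 to 18 cm tall (1- to 4-leaf stage). After twelve to sixteen days in a greenhouse, injury was visually rated against untreated controls from 0 (no effect) to 10 (complete control).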
# cocklebur = assay: Test B pre/postemergence cocklebur; type: in vivo, Xanthium strumarium
# Method in brief: as §1
# corn = assay: Test B pre/postemergence corn; type: in vivo, Zea mays
# Method in brief: as §1
# crabgrass = assay: Test B pre/postemergence crabgrass; type: in vivo, Digitaria sanguinalis
# Method in brief: as §1
# giant foxtail = assay: Test B pre/postemergence giant foxtail; type: in vivo, Setaria faberii
# Method in brief: as §1
# morningglory = assay: Test B pre/postemergence morningglory; type: in vivo, Ipomoea hederacea
# Method in brief: as §1
# pigweed = assay: Test B pre/postemergence pigweed; type: in vivo, Amaranthus retroflexus
# Method in brief: as §1
# rape = assay: Test B pre/postemergence rape; type: in vivo, Brassica napus
# Method in brief: as §1
# sugar beet = assay: Test B pre/postemergence sugar beet; type: in vivo, Beta vulgaris
# Method in brief: as §1
# wheat = assay: Test B pre/postemergence wheat; type: in vivo, Triticum aestivum
# Method in brief: as §1
# wild oat = assay: Test B pre/postemergence wild oat; type: in vivo, Avena fatua
# Method in brief: as §1
# purple nutsedge = assay: Test B pre/postemergence purple nutsedge; type: in vivo, Cyperus rotundus
# Method in brief: as §1
# rice = assay: Test B flood test rice; type: in vivo, Oryza sativa
# Method in brief: (§2)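 Plants were grown to the 2-leaf stage before treatment with test chemical, then held in a greenhouse for twelve to sixteen days. Injury was visually rated against untreated controls on a 0–10 scale, where 0 is no effect and 10 is complete control.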
# smallflower flatsedge = assay: Test B flood test smallflower flatsedge; type: in vivo, Cyperus difformis
# Method in brief: as §2
# duck salad = assay: Test B flood test duck salad; type: in vivo, Heteranthera limosa
# Method in brief: as §2
# bamyardgrass = assay: Test B flood test barnyardgrass; type: in vivo, Echinochloa crus-galli
# Method in brief: as §2
# [1] = Postemergence, Rate 62 g/ha, scale 0 to 10, 0 is no effect, 10 is complete control
# [2] = Postemergence, Rate 250 g/ha, scale 0 to 10, 0 no effect, 10 complete control
# [3] = Preemergence, Rate 62 g/ha, scale 0 to 10, 0 is no effect, 10 is complete control
# [4] = Preemergence, Rate 125 g/ha, scale 0 to 10 (0 no effect, 10 complete control)
# [5] = Preemergence, Rate 250 g/ha, scale of 0 to 10 where 0 is no effect and 10 is complete control
# [6] = Preemergence, Rate 500 g/ha, scale 0 (no effect) to 10 (complete control)
# [7] = Rate 125 g/ha, Postemergence, scale 0 to 10, 0 no effect, 10 complete control
# [8] = Rate 500 g/ha, Postemergence, 0 to 10 scale (0 no effect, 10 complete control)
# [9] = Rate 125 g/ha, Postemergence section (flood test species), scale 0 to 10, 0 no effect, 10 complete control
# [10] = Rate 500 g/ha, Postemergence section of Table B, 0 to 10 scale (0 no effect, 10 complete control)
# [11] = flood test, listed under Postemergence, Rate 250 g/ha, scale 0 to 10, 0 no effect, 10 complete control
structure (smiles),measurement,setting,value
CC(C)N(C(=O)n1oc(=O)n(-c2ccccc2)c1=O)c1ccc(F)cc1 [Compound 38],B. signalgrass plant response rating,surinam grass; [1],0
same,B. signalgrass plant response rating,surinam grass; [2],0
same,"Plant response rating, B. signalgrass",surinam grass; [3],3
same,"Plant response rating, B. signalgrass",surinam grass; [4],4
same,"Plant response rating, B. signalgrass",surinam grass; [5],8
same,B. signalgrass plant response rating,surinam grass; [6],8
same,B. signalgrass plant response rating,surinam grass; [7],0
same,B. signalgrass plant response rating,surinam grass; [8],0
same,Cocklebur plant response rating,cocklebur; [1],0
same,Cocklebur plant response rating,cocklebur; [2],1
same,"Plant response rating, Cocklebur",cocklebur; [3],0
same,"Plant response rating, Cocklebur",cocklebur; [4],0
same,Cocklebur plant response rating,cocklebur; [6],0
same,Cocklebur plant response rating,cocklebur; [7],0
same,Cocklebur plant response rating,cocklebur; [8],1
same,Corn plant response rating,corn; [1],0
same,Corn plant response rating,corn; [2],0
same,"Plant response rating, Corn",corn; [3],0
same,"Plant response rating, Corn",corn; [4],0
same,"Plant response rating, Corn",corn; [5],0
same,Corn plant response rating,corn; [6],0
same,Corn plant response rating,corn; [7],0
same,Corn plant response rating,corn; [8],0
same,Crabgrass plant response rating,crabgrass; [1],0
same,Crabgrass plant response rating,crabgrass; [2],8
same,"Plant response rating, Crabgrass",crabgrass; [3],2
same,"Plant response rating, Crabgrass",crabgrass; [4],5
same,"Plant response rating, Crabgrass",crabgrass; [5],10
same,Crabgrass plant response rating,crabgrass; [6],10
same,Crabgrass plant response rating,crabgrass; [7],7
same,Crabgrass plant response rating,crabgrass; [8],9
same,Giant foxtail plant response rating,giant foxtail; [1],0
same,Giant foxtail plant response rating,giant foxtail; [2],4
same,"Plant response rating, Giant foxtail",giant foxtail; [3],10
same,"Plant response rating, Giant foxtail",giant foxtail; [4],10
same,"Plant response rating, Giant foxtail",giant foxtail; [5],10
same,Giant foxtail plant response rating,giant foxtail; [6],10
same,Giant foxtail plant response rating,giant foxtail; [7],2
same,Giant foxtail plant response rating,giant foxtail; [8],8
same,Morningglory plant response rating,morningglory; [1],0
same,Morningglory plant response rating,morningglory; [2],1
same,"Plant response rating, Morningglory",morningglory; [3],0
same,"Plant response rating, Morningglory",morningglory; [4],0
same,"Plant response rating, Morningglory",morningglory; [5],0
same,Morningglory plant response rating,morningglory; [6],0
same,Morningglory plant response rating,morningglory; [7],0
same,Morningglory plant response rating,morningglory; [8],10
same,Redroot pigweed plant response rating,pigweed; [1],0
same,Redroot pigweed plant response rating,pigweed; [2],0
same,"Plant response rating, Redroot pigweed",pigweed; [3],2
same,"Plant response rating, Redroot pigweed",pigweed; [4],10
same,"Plant response rating, Redroot pigweed",pigweed; [5],10
same,Redroot pigweed plant response rating,pigweed; [6],10
same,Redroot pigweed plant response rating,pigweed; [7],0
same,Redroot pigweed plant response rating,pigweed; [8],0
same,Rape plant response rating,rape; [1],0
same,Rape plant response rating,rape; [2],0
same,"Plant response rating, Rape",rape; [3],0
same,"Plant response rating, Rape",rape; [4],0
same,Rape plant response rating,rape; [6],0
same,Rape plant response rating,rape; [7],0
same,Rape plant response rating,rape; [8],0
same,Sugarbeets plant response rating,sugar beet; [1],0
same,Sugarbeets plant response rating,sugar beet; [2],0
same,"Plant response rating, Sugarbeets",sugar beet; [3],0
same,"Plant response rating, Sugarbeets",sugar beet; [4],0
same,"Plant response rating, Sugarbeets",sugar beet; [5],2
same,Sugarbeets plant response rating,sugar beet; [6],6
same,Sugarbeets plant response rating,sugar beet; [7],0
same,Wheat plant response rating,wheat; [1],0
same,Wheat plant response rating,wheat; [2],0
same,"Plant response rating, Wheat",wheat; [3],0
same,"Plant response rating, Wheat",wheat; [4],0
same,"Plant response rating, Wheat",wheat; [5],0
same,Wheat plant response rating,wheat; [6],0
same,Wheat plant response rating,wheat; [7],0
same,Wild oats plant response rating,wild oat; [1],0
same,Wild oats plant response rating,wild oat; [2],0
same,"Plant response rating, Wild oats",wild oat; [4],6
same,"Plant response rating, Wild oats",wild oat; [5],6
same,Wild oats plant response rating,wild oat; [6],8
same,Wild oats plant response rating,wild oat; [7],0
same,Nutsedge plant response rating,purple nutsedge; [1],0
same,Nutsedge plant response rating,purple nutsedge; [2],0
same,"Plant response rating, Nutsedge",purple nutsedge; [3],0
same,"Plant response rating, Nutsedge",purple nutsedge; [4],0
same,"Plant response rating, Nutsedge",purple nutsedge; [5],0
same,Nutsedge plant response rating,purple nutsedge; [6],0
same,Nutsedge plant response rating,purple nutsedge; [7],0
same,Nutsedge plant response rating,purple nutsedge; [8],0
same,Rice plant response rating,rice; [1],0
same,Rice plant response rating,rice; [9],0
same,Rice plant response rating,rice; [10],0
same,Rice plant response rating,rice; [11],0
same,S. Flatsedge plant response rating,smallflower flatsedge; [1],0
same,S. Flatsedge plant response rating,smallflower flatsedge; [9],0
same,S. Flatsedge plant response rating,smallflower flatsedge; [11],0
same,Ducksalad plant response rating,duck salad; [1],0
same,Ducksalad plant response rating,duck salad; [10],0
same,Ducksalad plant response rating,duck salad; [11],0
same,Barnyardgrass plant response rating,bamyardgrass; [1],0
same,Barnyardgrass plant response rating,bamyardgrass; [9],0
same,Barnyardgrass plant response rating,bamyardgrass; [10],0
same,Barnyardgrass plant response rating,bamyardgrass; [11],0
